# Several values for one entry are separate records, joined by “and”; a condition that tells them apart may be missing. Equal values may be shown once. Inconclusive results and toxic doses are left out.
# System: BDF1 mice, P388 leukemia ip, median survival T/C
# Assay: NCI In Vivo Anticancer Drug Screen. Data for tumor model P388 Leukemia (intraperitoneal) in B6D2F1 (BDF1) mice
# Settings: endpoint: median survival time, higher = longer survival
# Procedure: The antitumor activity of compounds was measured in mice bearing transplantable tumors. Survival or tumor size were measured and the results are expressed as the measurement made in the treated group (T) divided by the measurement made in the vehicle treated control group (C). The tumor model used in this assay is P388 Leukemia (intraperitoneal) in B6D2F1 (BDF1) mice
# [1] = dose: 50.0 mg/kg/injection, schedule: Q04DX003 (ip), vehicle: saline
# [2] = dose: 100.0 mg/kg/injection, schedule: Q01DX009 (ip), vehicle: saline
# [3] = dose: 12.5 mg/kg/injection, schedule: Q01DX009 (ip), vehicle: saline with Tween-80
# [4] = dose: 25.0 mg/kg/injection, schedule: Q01DX009 (ip), vehicle: saline with Tween-80
# [5] = dose: 50.0 mg/kg/injection, schedule: Q01DX009 (ip), vehicle: saline with Tween-80
# [6] = dose: 50.0 mg/kg/injection, schedule: Q04DX003 (ip), vehicle: saline with Tween-80
# [7] = dose: 100.0 mg/kg/injection, schedule: Q04DX003 (ip), vehicle: saline with Tween-80
# [8] = dose: 25.0 mg/kg/injection, schedule: Q04DX003 (ip), vehicle: saline with Tween-80
# [9] = dose: 100.0 mg/kg/injection, schedule: Q04DX003 (ip), vehicle: Klucel (hydroxypropylcellulose) (HPC)
# [10] = dose: 200.0 mg/kg/injection, schedule: Q01DX009 (ip), vehicle: Klucel (hydroxypropylcellulose) (HPC)
# [11] = dose: 200.0 mg/kg/injection, schedule: Q04DX003 (ip), vehicle: Klucel (hydroxypropylcellulose) (HPC)
# [12] = dose: 100.0 mg/kg/injection, schedule: Q01DX009 (ip), vehicle: saline with Tween-80
# [13] = dose: 50.0 mg/kg/injection, schedule: Q01DX009 (ip), vehicle: Klucel (hydroxypropylcellulose) (HPC)
# [14] = dose: 100.0 mg/kg/injection, schedule: Q01DX009 (ip), vehicle: Klucel (hydroxypropylcellulose) (HPC)
structure (smiles),measurement,setting,value
CCOC(=O)C1CC[N+](=c2cc(-c3ccc(Cl)cc3)ss2)CC1 (configuration not stated),T/C,"dose: 50.0 mg/kg/injection, schedule: Q01DX009 (ip), vehicle: saline",101 % of control
same,T/C,[1],106 % of control
same,T/C,[2],99 % of control
same,T/C,"dose: 100.0 mg/kg/injection, schedule: Q04DX003 (ip), vehicle: saline",116 % of control
same,T/C,"dose: 200.0 mg/kg/injection, schedule: Q04DX003 (ip), vehicle: saline",116 % of control
same,T/C,"dose: 400.0 mg/kg/injection, schedule: Q04DX003 (ip), vehicle: saline",116 % of control
C[C@]12CC[C@H]3[C@@H](CC[C@H]4N(CCCl)CCC[C@]34C)[C@@H]1CC[C@@H]2O,T/C,"dose: 12.5 mg/kg/injection, schedule: Q01DX001 (ip), vehicle: saline",105 % of control
same,T/C,"dose: 25.0 mg/kg/injection, schedule: Q01DX001 (ip), vehicle: saline",109 % of control
CN(C)c1ccc(C2NC(=S)NC3=C2CCCC3)cc1 (configuration not stated),T/C,[3],108 % of control
same,T/C,[4],111 % of control
same,T/C,[5],88 % of control and 109 % of control
Cc1cc(C)c(S(=O)(=O)O)cc1C,T/C,[6],104 % of control
same,T/C,[7],100 % of control
O=C1N(Cl)C(=O)C(c2ccc(Cl)cc2)(c2ccc(Cl)cc2)N1Cl,T/C,"dose: 22.0 mg/kg/injection, schedule: Q04DX003 (ip), vehicle: saline with Tween-80",115 % of control
same,T/C,"dose: 22.0 mg/kg/injection, schedule: Q04DX003 (ip), vehicle: saline",91 % of control
same,T/C,"dose: 25.0 mg/kg/injection, schedule: Q02DX005 (ip), vehicle: Klucel (hydroxypropylcellulose) (HPC)",110 % of control
same,T/C,"dose: 25.0 mg/kg/injection, schedule: Q04DX003 (ip), vehicle: Klucel (hydroxypropylcellulose) (HPC)",105 % of control
same,T/C,[8],104 % of control
same,T/C,"dose: 30.0 mg/kg/injection, schedule: Q04DX003 (ip), vehicle: Klucel (hydroxypropylcellulose) (HPC)",100 % of control
same,T/C,"dose: 33.0 mg/kg/injection, schedule: Q04DX003 (ip), vehicle: saline with Tween-80",123 % of control
same,T/C,"dose: 33.0 mg/kg/injection, schedule: Q04DX003 (ip), vehicle: saline",116 % of control
same,T/C,"dose: 38.5 mg/kg/injection, schedule: Q04DX003 (ip), vehicle: saline with Tween-80",120 % of control
same,T/C,"dose: 50.0 mg/kg/injection, schedule: Q02DX005 (ip), vehicle: Klucel (hydroxypropylcellulose) (HPC)",124 % of control
same,T/C,"dose: 50.0 mg/kg/injection, schedule: Q04DX003 (ip), vehicle: Klucel (hydroxypropylcellulose) (HPC)",96 % of control
same,T/C,[6],153 % of control
same,T/C,[1],120 % of control
same,T/C,"dose: 60.0 mg/kg/injection, schedule: Q04DX003 (ip), vehicle: Klucel (hydroxypropylcellulose) (HPC)",111 % of control
same,T/C,"dose: 75.0 mg/kg/injection, schedule: Q04DX003 (ip), vehicle: saline with Tween-80",150 % of control
same,T/C,"dose: 75.0 mg/kg/injection, schedule: Q04DX003 (ip), vehicle: saline",120 % of control
same,T/C,"dose: 100.0 mg/kg/injection, schedule: Q02DX005 (ip), vehicle: Klucel (hydroxypropylcellulose) (HPC)",151 % of control
same,T/C,[9],96 % of control
same,T/C,"dose: 100.0 mg/kg/injection, schedule: Q04DX003 (ip), vehicle: saline sonified",160 % of control
same,T/C,[7],150 % of control and 154 % of control
same,T/C,"dose: 132.0 mg/kg/injection, schedule: Q02DX005 (ip), vehicle: Klucel (hydroxypropylcellulose) (HPC)",150 % of control
same,T/C,"dose: 132.0 mg/kg/injection, schedule: Q04DX003 (ip), vehicle: saline with Tween-80",112 % of control and 117 % of control
same,T/C,[10],156 % of control
same,T/C,"dose: 200.0 mg/kg/injection, schedule: Q02DX005 (ip), vehicle: Klucel (hydroxypropylcellulose) (HPC)",155 % of control and 171 % of control
same,T/C,[11],98 % of control
same,T/C,"dose: 200.0 mg/kg/injection, schedule: Q04DX003 (ip), vehicle: saline sonified",180 % of control
same,T/C,"dose: 300.0 mg/kg/injection, schedule: Q01DX009 (ip), vehicle: Klucel (hydroxypropylcellulose) (HPC)",95 % of control
same,T/C,"dose: 300.0 mg/kg/injection, schedule: Q02DX005 (ip), vehicle: Klucel (hydroxypropylcellulose) (HPC)",152 % of control
same,T/C,"dose: 300.0 mg/kg/injection, schedule: Q04DX003 (ip), vehicle: Klucel (hydroxypropylcellulose) (HPC)",114 % of control
same,T/C,"dose: 380.0 mg/kg/injection, schedule: Q04DX003 (ip), vehicle: Klucel (hydroxypropylcellulose) (HPC)",100 % of control
same,T/C,"dose: 400.0 mg/kg/injection, schedule: Q04DX003 (ip), vehicle: saline sonified",190 % of control
O=C(Nc1ccc(C2=NCCN2)cc1)Nc1cccc(NC(=O)Nc2cccc(C3=NCCN3)c2)c1,T/C,[3],150 % of control
same,T/C,"dose: 16.5 mg/kg/injection, schedule: Q04DX003 (ip), vehicle: saline with Tween-80",266 % of control and 170 % of control
same,T/C,[4],105 % of control
same,T/C,[8],250 % of control and 190 % of control and 200 % of control
same,T/C,"dose: 37.5 mg/kg/injection, schedule: Q04DX003 (ip), vehicle: saline with Tween-80",283 % of control and 185 % of control
same,T/C,[5],90 % of control
same,T/C,[6],177 % of control
CN(C)C(=O)C(=O)C1C=Cc2ccccc21 (configuration not stated),T/C,"dose: 100.0 mg/kg/injection, schedule: Q01DX001 (ip), vehicle: Klucel (hydroxypropylcellulose) (HPC)",100 % of control
same,T/C,[9],100 % of control
same,T/C,"dose: 200.0 mg/kg/injection, schedule: Q01DX001 (ip), vehicle: Klucel (hydroxypropylcellulose) (HPC)",95 % of control
same,T/C,[11],104 % of control
same,T/C,"dose: 400.0 mg/kg/injection, schedule: Q01DX001 (ip), vehicle: Klucel (hydroxypropylcellulose) (HPC)",90 % of control
same,T/C,"dose: 400.0 mg/kg/injection, schedule: Q04DX003 (ip), vehicle: Klucel (hydroxypropylcellulose) (HPC)",104 % of control
OCC1CC=CCC1 (configuration not stated),T/C,[2],114 % of control
same,T/C,"dose: 200.0 mg/kg/injection, schedule: Q01DX009 (ip), vehicle: saline",109 % of control
same,T/C,"dose: 400.0 mg/kg/injection, schedule: Q01DX009 (ip), vehicle: saline",119 % of control
c1ccc(CNc2ncncc2-c2ccccc2)cc1,T/C,[5],98 % of control
same,T/C,[12],105 % of control
same,T/C,"dose: 200.0 mg/kg/injection, schedule: Q01DX009 (ip), vehicle: saline with Tween-80",99 % of control
COc1cccc(NC(=O)N2CCCCC2)c1,T/C,"dose: 25.0 mg/kg/injection, schedule: Q01DX009 (ip), vehicle: Klucel (hydroxypropylcellulose) (HPC)",111 % of control
same,T/C,[13],111 % of control
same,T/C,[14],114 % of control
same,T/C,[10],114 % of control
CCN(CC)CC(Cl)CN(CC)CC,T/C,[6],110 % of control
same,T/C,[7],105 % of control
same,T/C,"dose: 200.0 mg/kg/injection, schedule: Q04DX003 (ip), vehicle: saline with Tween-80",100 % of control
O=NN(c1ccccc1)c1ccc(N(N=O)c2ccccc2)cc1,T/C,[13],100 % of control
same,T/C,[14],105 % of control
same,T/C,[10],110 % of control
CCCCCCCCCCCCCCCC[N+](C)(C)c1nc(Cl)nc(Cl)n1,T/C,"dose: 7.5 mg/kg/injection, schedule: Q01DX009 (ip), vehicle: saline",110 % of control
same,T/C,"dose: 7.5 mg/kg/injection, schedule: Q04DX003 (ip), vehicle: saline",109 % of control
same,T/C,"dose: 15.0 mg/kg/injection, schedule: Q01DX009 (ip), vehicle: saline",105 % of control
same,T/C,"dose: 15.0 mg/kg/injection, schedule: Q04DX003 (ip), vehicle: saline",113 % of control
same,T/C,"dose: 30.0 mg/kg/injection, schedule: Q01DX009 (ip), vehicle: saline",105 % of control
same,T/C,"dose: 30.0 mg/kg/injection, schedule: Q04DX003 (ip), vehicle: saline",109 % of control
same,T/C,"dose: 60.0 mg/kg/injection, schedule: Q04DX003 (ip), vehicle: saline",118 % of control
CCN1CCCC(Nc2nc(C(Cl)(Cl)Cl)nc3cc(Cl)ccc23)C1 (configuration not stated),T/C,[4],109 % of control
same,T/C,[5],113 % of control
same,T/C,[12],104 % of control
CS(=O)(=O)OCC(=O)NCC(O)CNC(=O)COS(C)(=O)=O,T/C,"dose: 78.0 mg/kg/injection, schedule: Q04DX003 (ip), vehicle: saline with Tween-80",150 % of control
same,T/C,"dose: 177.0 mg/kg/injection, schedule: Q04DX003 (ip), vehicle: saline with Tween-80",161 % of control
same,T/C,"dose: 264.0 mg/kg/injection, schedule: Q04DX003 (ip), vehicle: saline with Tween-80",231 % of control and 157 % of control
same,T/C,"dose: 400.0 mg/kg/injection, schedule: Q04DX003 (ip), vehicle: saline with Tween-80",209 % of control

# Source: PubChem BioAssay AID328 (DTP/NCI, 2004)
